Test results: ChEMBL document CHEMBL1139662, “Synthesis and biological investigation of new 4''-malonyl tethered derivatives of erythromycin and clarithromycin” (Bioorg Med Chem Lett, 2006)
≈ marks a conversion by molar mass, not a printed value.

Legend:
Escherichia coli [1] = assay: Antibacterial activity against macrolide-sensitive Escherichia coli HN818; assay type: functional
Escherichia coli [2] = assay: Inhibition of protein synthesis in Escherichia coli cell-free translational system; assay type: functional

SMILES	MIC (Escherichia coli [1])	IC50 (Escherichia coli [2])
CC[C@H]1OC(=O)[C@H](C)[C@@H](OC2C[C@@](C)(OC)[C@@H](OC(=O)CC(=O)OCc3ccccc3)[C@H](C)O2)[C@H](C)[C@@H](OC2O[C@H](C)C[C@H](N(C)C)[C@H]2O)[C@](C)(O)C[C@@H](C)C(=O)[C@H](C)[C@@H](O)[C@]1(C)O (stereo partly drawn)	8 µg/mL (≈ 8.79 µM)	1100 nM
CC[C@H]1OC(=O)[C@H](C)[C@@H](OC2C[C@@](C)(OC)[C@@H](OC(=O)CC(=O)N(C)CCN(C)C)[C@H](C)O2)[C@H](C)[C@@H](OC2O[C@H](C)C[C@H](N(C)C)[C@H]2O)[C@](C)(O)C[C@@H](C)C(=O)[C@H](C)[C@@H](O)[C@]1(C)O (stereo partly drawn)	8 µg/mL (≈ 8.85 µM)	1100 nM
CC[C@H]1OC(=O)[C@H](C)[C@@H](OC2C[C@@](C)(OC)[C@@H](OC(=O)CC(=O)O)[C@H](C)O2)[C@H](C)[C@@H](OC2O[C@H](C)C[C@H](N(C)C)[C@H]2O)[C@](C)(OC)C[C@@H](C)C(=O)[C@H](C)[C@@H](O)[C@]1(C)O (stereo partly drawn)	128 µg/mL (≈ 153 µM)	3900 nM
CC[C@H]1OC(=O)[C@H](C)[C@@H](OC2C[C@@](C)(OC)[C@@H](OC(=O)CC(=O)OCc3ccccc3)[C@H](C)O2)[C@H](C)[C@@H](OC2O[C@H](C)C[C@H](N(C)C)[C@H]2O)[C@](C)(OC)C[C@@H](C)C(=O)[C@H](C)[C@@H](O)[C@]1(C)O (stereo partly drawn)	8 µg/mL (≈ 8.66 µM)	1200 nM
CC[C@H]1OC(=O)[C@H](C)[C@@H](OC2C[C@@](C)(OC)[C@@H](OC(=O)CC(=O)O)[C@H](C)O2)[C@H](C)[C@@H](OC2O[C@H](C)C[C@H](N(C)C)[C@H]2O)[C@](C)(O)C[C@@H](C)C(=O)[C@H](C)[C@@H](O)[C@]1(C)O (stereo partly drawn)	128 µg/mL (≈ 156 µM)	3700 nM
CC[C@H]1OC(=O)[C@H](C)[C@@H](O[C@H]2C[C@@](C)(OC)[C@@H](O)[C@H](C)O2)[C@H](C)[C@@H](O[C@@H]2O[C@H](C)C[C@H](N(C)C)[C@H]2O)[C@](C)(OC)C[C@@H](C)C(=O)[C@H](C)[C@@H](O)[C@]1(C)O [CLARITHROMYCIN]	2 µg/mL (≈ 2.67 µM)	
CC[C@H]1OC(=O)[C@H](C)[C@@H](O[C@H]2C[C@@](C)(OC)[C@@H](O)[C@H](C)O2)[C@H](C)[C@@H](O[C@@H]2O[C@H](C)C[C@H](N(C)C)[C@H]2O)[C@](C)(O)C[C@@H](C)C(=O)[C@H](C)[C@@H](O)[C@]1(C)O [ERYTHROMYCIN]	2 µg/mL (≈ 2.73 µM)	900 nM
